Reference: ChEMBL document CHEMBL1201862, “PubChem BioAssay data set” (2004)
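In this assay, cells in 96-well plates receive the compound at five concentrations for 48 hours. Endpoints are linearly interpolated between the surrounding concentrations. GI50 is the concentration that inhibits growth by half.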 The source made the active and inactive calls. No stated cut-off is given here; in the data, active = GI50 up to about 1.1 µM and inactive = higher.

What was measured:
Experiment in all cases: DTP human tumour cell line panel, 48 h
HCT-15 = test system: HCT-15
LOX IMVI = test system: LOX IMVI
OVCAR-4 = test system: OVCAR-4
786-0 = test system: 786-0
IGROV-1 = test system: IGROV-1
A549 = test system: A549
COLO 205 = test system: COLO 205
SNB-19 = test system: SNB-19
MOLT-4 = test system: MOLT-4
RPMI-8226 = test system: RPMI-8226
HL-60 = test system: HL-60
K562 = test system: K562
Malme-3M = test system: Malme-3M
HT-29 = test system: HT-29
OVCAR-5 = test system: OVCAR-5
SK-MEL-5 = test system: SK-MEL-5

| SMILES | GI50 (HCT-15) [µM] | GI50 (LOX IMVI) | GI50 (OVCAR-4) | GI50 (786-0) | GI50 (IGROV-1) | GI50 (A549) | GI50 (COLO 205) | GI50 (SNB-19) | GI50 (MOLT-4) | GI50 (RPMI-8226) | GI50 (HL-60) | GI50 (K562) | GI50 (Malme-3M) | GI50 (HT-29) | GI50 (OVCAR-5) | GI50 (SK-MEL-5) |
| --- | --- | --- | --- | --- | --- | --- | --- | --- | --- | --- | --- | --- | --- | --- | --- | --- |
| OCC(O)C(O)C(O)c1nn(-c2ccc(F)cc2)c2nc3cc(Cl)c(Cl)cc3nc12 (stereo not given) | 53.3 | 18.3 µM (inactive) | 6.21 µM (inactive) | 17.3 µM (inactive) | 21.9 µM (inactive) | 13.3 µM (inactive) | 69 µM (inactive) | 18.3 µM (inactive) | 18.8 µM (inactive) | 36.4 µM (inactive) | > 100 µM (inactive) | 17.6 µM (inactive) | 9.51 µM (inactive) | 56 µM (inactive) | > 100 µM (inactive) |  |
| Brc1cc(C2OCCCO2)ccc1OCc1ccccc1 | 48 | 25.8 µM (inactive) | 31.2 µM (inactive) | 40.4 µM (inactive) | > 100 µM (inactive) | 64.6 µM (inactive) | 27.4 µM (inactive) | 88.7 µM (inactive) | 24.9 µM (inactive) | 25.9 µM (inactive) | 25.2 µM (inactive) | 34.5 µM (inactive) | 31.8 µM (inactive) | 17.5 µM (inactive) | 29.6 µM (inactive) | 27.2 µM (inactive) |
| O=C1C=CC2(CCCCCCC2=O)CC1 (stereo not given) | > 100 | 44.9 µM (inactive) | > 100 µM (inactive) | > 100 µM (inactive) | > 100 µM (inactive) | > 100 µM (inactive) | 57 µM (inactive) | > 100 µM (inactive) | > 100 µM (inactive) | > 100 µM (inactive) | > 100 µM (inactive) |  | > 100 µM (inactive) | > 100 µM (inactive) | > 100 µM (inactive) | > 100 µM (inactive) |
| O=C(/C=C/c1c(O)ccc2ccccc12)c1ccccc1Cl | 36.4 | 24.2 µM (inactive) | 39 µM (inactive) | 60.8 µM (inactive) | 55.5 µM (inactive) | 32.5 µM (inactive) | 17.8 µM (inactive) | 49.8 µM (inactive) | 33.4 µM (inactive) | 27.7 µM (inactive) | 11.1 µM (inactive) | 20.2 µM (inactive) | 18.5 µM (inactive) | 46.5 µM (inactive) | > 100 µM (inactive) | 18.2 µM (inactive) |
| CCCCCCCCC(=O)NCCCNCCCNC(=O)CCCCCCCC | 14.7 | 1.77 µM (inactive) | 14.7 µM (inactive) | 1.86 µM (inactive) | 4.35 µM (inactive) | 14.3 µM (inactive) | 4.88 µM (inactive) | 19.1 µM (inactive) | 3.4 µM (inactive) | 3.23 µM (inactive) | 2.11 µM (inactive) | 2.18 µM (inactive) | 12.6 µM (inactive) | 2.92 µM (inactive) | 15.2 µM (inactive) | 3.82 µM (inactive) |
| CN(C)c1ccc(/C=C(/C(=O)O)c2csc(-c3nc(/C(=C\c4ccc(N(C)C)cc4)C(=O)O)cs3)n2)cc1 | 42.1 | 73.8 µM (inactive) |  | 46.2 µM (inactive) | > 100 µM (inactive) | > 100 µM (inactive) | 93.3 µM (inactive) |  | 58.6 µM (inactive) | 46.1 µM (inactive) | 43 µM (inactive) | 41.7 µM (inactive) | > 100 µM (inactive) | 44.7 µM (inactive) | > 100 µM (inactive) | 86.5 µM (inactive) |
| CCOC(=O)C(CCC(N)=O)(CCC(=O)OC)C(=O)OCC |  | > 100 µM (inactive) | > 100 µM (inactive) | > 100 µM (inactive) | > 100 µM (inactive) | > 100 µM (inactive) | > 100 µM (inactive) | > 100 µM (inactive) | > 100 µM (inactive) | > 100 µM (inactive) | > 100 µM (inactive) | > 100 µM (inactive) | > 100 µM (inactive) | > 100 µM (inactive) | > 100 µM (inactive) |  |
| COc1ccc(C(Cl)=C(c2ccc(OCCN(C)C)cc2)c2ccc(OCCN(C)C)cc2)cc1 | 1.59 |  | 2.49 µM (inactive) | 1.27 µM (inactive) | 3.03 µM (inactive) | 1.83 µM (inactive) | 1.39 µM (inactive) | 2.42 µM (inactive) | 1.22 µM (inactive) | 1.62 µM (inactive) | 1.83 µM (inactive) | 1.37 µM (inactive) | 1.81 µM (inactive) | 1.49 µM (inactive) | 1.73 µM (inactive) | 1.73 µM (inactive) |
| Cc1nc2nnnn2c2c1C(=O)Nc1ccccc1N2 |  | > 100 µM (inactive) |  | > 100 µM (inactive) | > 100 µM (inactive) | 62.1 µM (inactive) | > 100 µM (inactive) | > 100 µM (inactive) | 43.2 µM (inactive) | > 100 µM (inactive) | > 100 µM (inactive) | > 100 µM (inactive) | > 100 µM (inactive) | > 100 µM (inactive) |  |  |
| COc1ccc(CNc2cnc3ccc(N)cc3n2)cc1 | > 100 | > 100 µM (inactive) | > 100 µM (inactive) | > 100 µM (inactive) |  | > 100 µM (inactive) | 0.064 µM (active) | > 100 µM (inactive) | 24.7 µM (inactive) | 81.8 µM (inactive) | > 100 µM (inactive) | > 100 µM (inactive) | > 100 µM (inactive) | > 100 µM (inactive) | > 100 µM (inactive) | 35.3 µM (inactive) |
| O=C(O)CCNS(=O)(=O)c1ccc(NC(=O)c2ccccc2)cc1 | > 100 | > 100 µM (inactive) | > 100 µM (inactive) | > 100 µM (inactive) | > 100 µM (inactive) | > 100 µM (inactive) | > 100 µM (inactive) | > 100 µM (inactive) | > 100 µM (inactive) | > 100 µM (inactive) | > 100 µM (inactive) | > 100 µM (inactive) | > 100 µM (inactive) | > 100 µM (inactive) | > 100 µM (inactive) | > 100 µM (inactive) |
| O=C(Cc1nc2ccccc2s1)NC12CC3CC(CC(C3)C1)C2 | > 100 | > 100 µM (inactive) | > 100 µM (inactive) | > 100 µM (inactive) |  | > 100 µM (inactive) |  | > 100 µM (inactive) | > 100 µM (inactive) |  | > 100 µM (inactive) | > 100 µM (inactive) | > 100 µM (inactive) | > 100 µM (inactive) |  |  |
| Cc1ccc(/N=C2\N=C(N3CC(C)OC(C)C3)c3ccccc32)cc1 (stereo not given) | 25.4 | 28.2 µM (inactive) | 18.1 µM (inactive) | 34.4 µM (inactive) | 27.5 µM (inactive) | 39.9 µM (inactive) | 40.3 µM (inactive) | 35 µM (inactive) | 20.1 µM (inactive) | 27.2 µM (inactive) |  | 34 µM (inactive) | 31.2 µM (inactive) | 23.7 µM (inactive) | 40.6 µM (inactive) | 23.6 µM (inactive) |
| COc1ccc2c(c1)C(=O)N1CCOC1C2C(=O)O (stereo not given) | > 100 | > 100 µM (inactive) | > 100 µM (inactive) | > 100 µM (inactive) | > 100 µM (inactive) | > 100 µM (inactive) |  | > 100 µM (inactive) | > 100 µM (inactive) | > 100 µM (inactive) | > 100 µM (inactive) | > 100 µM (inactive) |  | > 100 µM (inactive) | > 100 µM (inactive) | > 100 µM (inactive) |
| CN(C)CCNC(=O)c1cccc2[nH]c(-c3cccnc3)nc12 | 24.8 | 18.1 µM (inactive) | 29.3 µM (inactive) | 22.9 µM (inactive) | 32.5 µM (inactive) | 19.8 µM (inactive) | 14.5 µM (inactive) | 28.1 µM (inactive) | 25.8 µM (inactive) |  | 31.5 µM (inactive) | 27.9 µM (inactive) |  | 27.4 µM (inactive) | 28.1 µM (inactive) | 16.9 µM (inactive) |
| COc1cc(C[P+](c2ccccc2)(c2ccccc2)c2ccccc2)cc(OC)c1OC | > 100 | > 100 µM (inactive) | > 100 µM (inactive) | > 100 µM (inactive) | > 100 µM (inactive) | > 100 µM (inactive) | > 100 µM (inactive) | > 100 µM (inactive) |  | > 100 µM (inactive) | > 100 µM (inactive) | > 100 µM (inactive) | > 100 µM (inactive) | > 100 µM (inactive) | > 100 µM (inactive) | > 100 µM (inactive) |
| CCOC(=O)NC(=O)c1cn(CCN2CCN(C(=O)CNC(=O)CNC(=O)Cn3cc(C(=O)NC(=O)OCC)c(=O)[nH]c3=O)CC2)c(=O)[nH]c1=O | > 100 | > 100 µM (inactive) |  | > 100 µM (inactive) |  | > 100 µM (inactive) | > 100 µM (inactive) | > 100 µM (inactive) | > 100 µM (inactive) |  | > 100 µM (inactive) | > 100 µM (inactive) | > 100 µM (inactive) | > 100 µM (inactive) | > 100 µM (inactive) |  |
| Cn1c(=O)c2c(nc3n2CCC(=O)N3)n(C)c1=O |  | > 100 µM (inactive) | > 100 µM (inactive) | > 100 µM (inactive) | > 100 µM (inactive) | > 100 µM (inactive) | > 100 µM (inactive) | > 100 µM (inactive) | > 100 µM (inactive) |  | > 100 µM (inactive) | > 100 µM (inactive) | > 100 µM (inactive) | > 100 µM (inactive) | > 100 µM (inactive) | > 100 µM (inactive) |
| CCCCCCCCCCCCSC(=S)c1c(C)[nH]n(-c2ccccc2)c1=O | 1.93 | 15.9 µM (inactive) | 8.36 µM (inactive) | 15.6 µM (inactive) | 14.6 µM (inactive) | 11.8 µM (inactive) | 15.3 µM (inactive) | 12.4 µM (inactive) | 6.61 µM (inactive) | 11.2 µM (inactive) | 8.59 µM (inactive) | 6.61 µM (inactive) | 10.7 µM (inactive) | 14.3 µM (inactive) | 16.2 µM (inactive) | 5.58 µM (inactive) |
